Holding throughout (type): cell-based
One experiment deals with T1, human TLR7 (Homo sapiens, UniProt Q9NYK1).
T1 construct: host or cells: HEK-Blue cells
T1 sequence (Q9NYK1 27-1049): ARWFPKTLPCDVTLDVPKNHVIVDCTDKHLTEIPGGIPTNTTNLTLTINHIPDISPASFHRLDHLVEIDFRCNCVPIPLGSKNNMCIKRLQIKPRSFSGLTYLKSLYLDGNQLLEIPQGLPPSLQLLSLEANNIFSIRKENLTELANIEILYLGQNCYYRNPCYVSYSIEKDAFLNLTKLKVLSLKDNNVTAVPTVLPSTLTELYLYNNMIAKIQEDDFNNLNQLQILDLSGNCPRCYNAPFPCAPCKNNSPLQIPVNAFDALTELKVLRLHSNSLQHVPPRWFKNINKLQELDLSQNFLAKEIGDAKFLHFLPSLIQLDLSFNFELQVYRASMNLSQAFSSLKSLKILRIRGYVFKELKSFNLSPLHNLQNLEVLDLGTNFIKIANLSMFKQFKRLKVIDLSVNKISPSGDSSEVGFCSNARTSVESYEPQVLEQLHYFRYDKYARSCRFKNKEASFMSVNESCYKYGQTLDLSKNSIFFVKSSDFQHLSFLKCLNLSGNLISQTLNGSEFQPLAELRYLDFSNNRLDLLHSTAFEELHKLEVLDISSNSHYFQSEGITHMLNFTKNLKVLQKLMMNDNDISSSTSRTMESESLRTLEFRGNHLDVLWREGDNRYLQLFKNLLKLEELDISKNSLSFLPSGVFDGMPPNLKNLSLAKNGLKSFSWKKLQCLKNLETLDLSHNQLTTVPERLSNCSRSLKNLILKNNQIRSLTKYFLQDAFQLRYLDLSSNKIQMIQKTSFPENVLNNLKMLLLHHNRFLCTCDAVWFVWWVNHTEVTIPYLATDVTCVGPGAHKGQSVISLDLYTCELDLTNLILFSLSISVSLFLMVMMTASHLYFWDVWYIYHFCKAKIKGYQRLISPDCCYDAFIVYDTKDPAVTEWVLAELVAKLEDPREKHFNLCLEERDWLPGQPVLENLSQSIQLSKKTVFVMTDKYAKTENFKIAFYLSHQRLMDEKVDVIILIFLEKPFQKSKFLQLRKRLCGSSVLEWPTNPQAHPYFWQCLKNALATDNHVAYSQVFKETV
In words: TLR7 inhibition reporter assay (HEK-Blue SEAP). The conditions noted are these: HEK-Blue cells overexpressing human TLR7, stimulated with gardiquimod 7.5 μM, 22 hour incubation. The method in brief:
(§1)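 HEK-Blue cells overexpressing the receptor, with an NF-κB/AP-1-driven SEAP reporter, were pre-treated with compound (0.05 nM to 50 μM) for 30 min at room temperature. Stimulation used gardiquimod 7.5 μM (TLR7), R848 15.9 μM (TLR8) or ODN2006 5 nM (TLR9), followed by 22 h at 37 °C.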
On the technique in general: In a reporter assay the amount or activity of a reporter protein is the signal.

The target in a further experiment is T2, human TLR8 (Homo sapiens, UniProt Q9NR97).
T2 construct: host or cells: HEK-Blue cells
T2 sequence (Q9NR97 27-1041): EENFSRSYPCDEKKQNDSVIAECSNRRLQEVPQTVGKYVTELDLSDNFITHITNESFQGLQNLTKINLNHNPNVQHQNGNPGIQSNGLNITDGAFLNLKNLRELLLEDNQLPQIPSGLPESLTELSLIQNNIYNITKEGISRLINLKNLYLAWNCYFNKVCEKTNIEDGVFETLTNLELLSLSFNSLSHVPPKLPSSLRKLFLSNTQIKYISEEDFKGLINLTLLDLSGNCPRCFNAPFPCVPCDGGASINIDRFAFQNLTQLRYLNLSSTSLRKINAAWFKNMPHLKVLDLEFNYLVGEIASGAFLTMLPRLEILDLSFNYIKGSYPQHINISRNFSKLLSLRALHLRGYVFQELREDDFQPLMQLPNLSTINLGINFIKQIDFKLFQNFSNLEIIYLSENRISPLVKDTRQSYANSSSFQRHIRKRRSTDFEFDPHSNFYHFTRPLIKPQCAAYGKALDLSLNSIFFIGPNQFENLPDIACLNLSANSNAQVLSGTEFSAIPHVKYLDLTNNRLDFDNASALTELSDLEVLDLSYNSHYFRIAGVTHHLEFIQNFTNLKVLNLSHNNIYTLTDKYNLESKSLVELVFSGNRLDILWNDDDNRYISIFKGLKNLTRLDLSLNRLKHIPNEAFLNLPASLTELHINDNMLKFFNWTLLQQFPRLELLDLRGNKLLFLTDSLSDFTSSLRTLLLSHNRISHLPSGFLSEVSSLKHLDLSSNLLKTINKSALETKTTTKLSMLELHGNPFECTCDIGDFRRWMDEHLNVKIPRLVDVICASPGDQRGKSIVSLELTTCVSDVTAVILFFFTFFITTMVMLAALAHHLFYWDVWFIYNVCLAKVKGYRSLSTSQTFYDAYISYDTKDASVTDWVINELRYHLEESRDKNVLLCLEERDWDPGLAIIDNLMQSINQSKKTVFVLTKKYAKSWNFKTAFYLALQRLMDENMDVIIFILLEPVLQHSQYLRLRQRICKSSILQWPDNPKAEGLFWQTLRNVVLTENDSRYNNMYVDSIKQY
In words: TLR8 inhibition reporter assay (HEK-Blue SEAP). The note with it: HEK-Blue cells overexpressing human TLR8, stimulated with R848 15.9 μM, 22 hour incubation. The method in brief:
as §1

Another experiment deals with T3, human TLR9 (Homo sapiens, UniProt Q9NR96).
T3 construct: host or cells: HEK-Blue cells
T3 sequence (Q9NR96 26-1032): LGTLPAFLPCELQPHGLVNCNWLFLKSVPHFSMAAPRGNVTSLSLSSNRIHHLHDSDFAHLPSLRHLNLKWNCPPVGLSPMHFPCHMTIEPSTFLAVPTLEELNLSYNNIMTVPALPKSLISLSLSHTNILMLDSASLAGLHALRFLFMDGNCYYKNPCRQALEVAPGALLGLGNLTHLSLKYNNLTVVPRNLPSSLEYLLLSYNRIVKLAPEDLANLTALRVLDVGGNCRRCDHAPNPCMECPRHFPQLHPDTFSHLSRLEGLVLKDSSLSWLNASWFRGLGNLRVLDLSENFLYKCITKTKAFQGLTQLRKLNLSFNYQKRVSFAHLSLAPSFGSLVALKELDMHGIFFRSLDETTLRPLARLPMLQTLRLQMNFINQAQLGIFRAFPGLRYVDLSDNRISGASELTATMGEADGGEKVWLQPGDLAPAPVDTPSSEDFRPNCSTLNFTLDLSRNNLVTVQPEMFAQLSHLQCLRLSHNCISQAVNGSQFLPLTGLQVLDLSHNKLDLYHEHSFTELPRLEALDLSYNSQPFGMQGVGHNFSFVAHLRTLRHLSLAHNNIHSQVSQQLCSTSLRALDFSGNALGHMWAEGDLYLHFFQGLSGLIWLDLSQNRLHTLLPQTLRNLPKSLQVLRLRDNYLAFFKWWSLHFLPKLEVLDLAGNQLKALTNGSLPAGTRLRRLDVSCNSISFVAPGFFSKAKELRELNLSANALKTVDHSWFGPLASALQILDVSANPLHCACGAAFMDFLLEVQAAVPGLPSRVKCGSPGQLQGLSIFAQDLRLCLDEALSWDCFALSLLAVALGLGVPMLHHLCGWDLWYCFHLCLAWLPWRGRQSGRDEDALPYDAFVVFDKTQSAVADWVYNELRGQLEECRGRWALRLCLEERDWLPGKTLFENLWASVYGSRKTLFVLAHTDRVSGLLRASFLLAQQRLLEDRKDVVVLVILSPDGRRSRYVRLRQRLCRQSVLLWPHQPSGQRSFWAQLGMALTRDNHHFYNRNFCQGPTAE
In words: TLR9 inhibition reporter assay (HEK-Blue SEAP). The conditions noted are these: HEK-Blue cells overexpressing human TLR9, stimulated with ODN2006 5 nM, 22 hour incubation. The method in brief:
as §1

The text below walks through data of patent US12172995B2, “Substituted indole and indazole compounds” (BRISTOL-MYERS SQUIBB COMPANY, priority 2018, dated 2024).

Consider `Cc1cc2c(C3CCNCC3)n[nH]c2cc1-c1cc(C)c2nnnn2c1` [Example 74, 8-methyl-6-(5-methyl-3-(piperidin-4-yl)-1H-indazol-6-yl) tetrazolo[1,5-a]pyridine], for which the IC50 (as a rule, the concentration that gives 50% inhibition) against human TLR7 amounted to 49.3 nM; at human TLR8, 15.5 nM; on human TLR9, 4940 nM.
With `Cc1cc(-c2cc(C)c3ncnn3c2)cc2[nH]nc(C3CCN(C(=O)CN(C)C)CC3)c12` [Example 75, 2-(dimethylamino)-1-(4-(4-methyl-6-(8-methyl-[1,2,4]triazolo[1,5-a]pyridin-6-yl)-1H-indazol-3-yl)piperidin-1-yl)ethan-1-one], the IC50 against human TLR7 is 7.2 nM; against human TLR8, 14.1 nM; at human TLR9, 1920 nM.
On to `Cc1cc(-c2cc(C)c3ncnn3c2)cc2[nH]nc(C3CCN(CC(=O)N(C)C)CC3)c12` [Example 76, N,N-dimethyl-2-(4-(4-methyl-6-(8-methyl-[1,2,4]triazolo[1,5-a]pyridin-6-yl)-1H-indazol-3-yl)piperidin-1-yl) acetamide], for which the results for the half-maximal inhibitory concentration (IC50) on human TLR7, against human TLR8 and against human TLR9 were 6.9 nM, 37.8 nM and 2110 nM, respectively.
For the molecule `Cc1cc(-c2cc(C)c3ncnn3c2)cc2[nH]nc(C3CCN(CC(C)(C)O)CC3)c12` [Example 77, 2-methyl-1-(4-(4-methyl-6-(8-methyl-[1,2,4]triazolo[1,5-a]pyridin-6-yl)-1H-indazol-3-yl)piperidin-1-yl)propan-2-ol], the results for the IC50 against human TLR7, at human TLR8 and at human TLR9 were 11.1 nM, 10.9 nM and 2190 nM, respectively.
In the case of `Cc1cc(-c2cc(C)c3ncnn3c2)cc2[nH]nc(C3CCN(C4CCOCC4)CC3)c12` [Example 78, 8-methyl-6-(4-methyl-3-(1-(tetrahydro-2H-pyran-4-yl)piperidin-4-yl)-1H-indazol-6-yl)-[1,2,4]triazolo[1,5-a]pyridine], the half-maximal inhibitory concentration (IC50) at human TLR7 was found to be 92.2 nM; on human TLR8, 252 nM; at human TLR9, 24500 nM.
Regarding `Cc1cc(-c2cc(C)c3ncnn3c2)cc2[nH]nc(C3CCN(C)CC3)c12` [Example 79, 8-methyl-6-(4-methyl-3-(1-methylpiperidin-4-yl)-1H-indazol-6-yl)-[1,2,4]triazolo[1,5-a]pyridine], the values for the IC50 on human TLR7, on human TLR8 and on human TLR9 were 10.3 nM, 53.8 nM and 6050 nM, respectively.
Consider `Cc1cc(-c2cc(C)c3ncnn3c2)cc2[nH]nc(C3CCC(N(C)C)CC3)c12` (stereo not drawn) [Example 80, N,N-dimethyl-4-(4-methyl-6-(8-methyl-[1,2,4]triazolo[1,5-a]pyridin-6-yl)-1H-indazol-3-yl) cyclohexan-1-amine], for which the figures for the IC50 against human TLR7, against human TLR8 and against human TLR9 were 3.8 nM, 2.5 nM and 2840 nM, respectively.
The corresponding values for `Cc1cc(-c2cc(C)c3ncnn3c2)cc2[nH]nc(C3CCC(N(C)C)CC3)c12` (stereo not drawn) [Example 81, N,N-dimethyl-4-(4-methyl-6-(8-methyl-[1,2,4]triazolo[1,5-a]pyridin-6-yl)-1H-indazol-3-yl)cyclohexan-1-amine] are 1.3 nM, 5.3 nM and 1830 nM.
As for `CCc1cc2c(C3CCNCC3)n[nH]c2cc1-c1cc(C)c2ncnn2c1` [Example 82, 6-(5-ethyl-3-(piperidin-4-yl)-1H-indazol-6-yl)-8-methyl-[1,2,4]triazolo[1,5-a]pyridine], the half-maximal inhibitory concentration (IC50) against human TLR7 came to 1.6 nM; at human TLR8, 0.4 nM; at human TLR9 it was 2200 nM.
The like results for `Cc1cc2c(C3CCNCC3)n[nH]c2cc1-c1cc(C)c2ncnn2c1C` [Example 83, 5,8-dimethyl-6-(5-methyl-3-(piperidin-4-yl)-1H-indazol-6-yl)-[1,2,4]triazolo[1,5-a]pyridine] were, in that order, 45 nM, 5.5 nM and 8010 nM.
The like results for `Cc1cc2c(C3CCNCC3)n[nH]c2cc1-c1cc(C#N)c2ncnn2c1` [Example 84, 6-(5-methyl-3-(piperidin-4-yl)-1H-indazol-6-yl)-[1,2,4]triazolo[1,5-a]pyridine-8-carbonitrile] were, in that order, 33.4 nM, 15.7 nM and 5610 nM.
Take `Cc1cc2c(C3CCNCC3)n[nH]c2cc1-c1cc(-c2cncnc2)c2ncnn2c1` [Example 85, 6-(5-methyl-3-(piperidin-4-yl)-1H-indazol-6-yl)-8-(pyrimidin-5-yl)-[1,2,4]triazolo[1,5-a]pyridine]: the IC50 amounted to 33 nM against human TLR7, 1.5 nM on human TLR8 and 3940 nM against human TLR9.
Regarding `COc1cc(-c2cc(C)c3ncnn3c2)cc2[nH]nc(C3CCNCC3)c12` [Example 86, 6-(4-methoxy-3-(piperidin-4-yl)-1H-indazol-6-yl)-8-methyl-[1,2,4]triazolo[1,5-a]pyridine], the results for the IC50 against human TLR7, at human TLR8 and against human TLR9 were 5.8 nM, 21.8 nM and 1290 nM, respectively.
